Assays:
[1] = test system: Dutch-belted pigmented rabbits; assay: Arachidonate induced uveitis, anterior chamber leukocyte infiltration; assay type: in vivo, rabbit; conditions: topical, concentrations of 0.1, 0.3 and 1%; sodium arachidonate challenge; FIG. 12
Protocol: Arachidonate Induced Uveitis
The rational for this protocol is to use arachidonate to directly produce ocular anterior segment uveitis, as opposed to using lipopolysaccharide (LPS) to indirectly release arachidonic acid.
Conscious male or female Dutch-belted pigmented rabbits weighing 2.5-3 kg were used for all in vivo slit lamp studies. Four animals were employed per test group. The right eye of each animal receiving 35 μl of topically administered test and the contralateral left eye of each animal receiving 35 μl of topically administered vehicle (t=0 minutes), followed 30 minutes later by treatment with 35 μl of 0.5% sodium arachidonate onto the surface of both eyes (t=30 minutes). Both eyes were examined by slit lamp 60 minutes following sodium arachdionate challenge (t=90 minutes) at 16× magnification under both white light and blue light illumination at an approximate angle of 45° through 1 mm and 5 mm slit widths.
Measurement of Anterior Chamber Leukocyte Infiltration:
Anterior chamber leukocyte infiltration was measured using a numerical scoring system to estimate cell number per field defined by a 5 mm slit width: 0=no cells per field (no response); 1=1-10 cells per field (mild); 2=11-20 cells per field (moderate); 3=[…] cells per field (severe); 4=>50 cells per filed (florid). Results are reported as the mean score value±S.E.M.

[2] = test system: allergic conjunctival itch; assay: Allergic conjunctival itch model; assay type: in vivo; conditions: FIGS. 10 and 11
Protocol: The compounds of this invention were tested according to the method described in “Characterization of Receptor Subtypes Involved in Prostanoid-Induced Conjunctival Pruritis and Their Role in Mediating Conjunctival Itching”, Vol. 279, No. 1, (JPET) 279, 137-142' 1996 for their efficacy in alleviating itch.

Strains TA 98 and TA 100 = assay: Ames Test for mutagenicity; assay type: cell-based
Protocol: The compounds of FIGS. 3 and 3(a) were tested for mutagenicity by means of the Ames Test using Strains TA 98 and TA 100. The results were negative for both compounds.

CCC(CC)COc1ccc(Cl)cc1Cn1nc(CCC(=O)O)cc1C [Example 3a, 3-{1-[5-Chloro-2-(2-ethyl-butoxy)-benzyl]-5-methyl-1H-pyrazol-3-yl}-propionic acid]
anterior chamber leukocyte infiltration (uveitis model) [1]: dose dependent response | number of itch-scratch episodes [2]: significantly lower number of itch-scratch episodes | mutagenicity (Ames Test) (Strains TA 98 and TA 100): negative
